Assay [1] concerns the target T1, serotonin (5-HT) reuptake (Rattus norvegicus, UniProt P31652).
T1 construct: synaptosomes are freshly isolated from areas of the rat brain; from tissue; host or cells: rat brain synaptosomes (P2 fraction)
Kind of assay: Inhibition of serotonin (5HT) reuptake in synaptosomes from rat brain. The class given is biochemical. Conditions: Table 2, test concentration 10 μM; for inhibition at 10 µM: read-out: 5-HT reuptake. The gist of the method: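 Freshly isolated rat brain synaptosomes (P2 fraction) used for 5-HT reuptake. Test compound at 10 μM, activity given as % inhibition.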

Another assay deals with T2, human μ opiate receptor (Homo sapiens, UniProt P35372).
T2 construct: purchased PerkinElmer Life Sciences, Zaventem, Belgium RB-HOM; host or cells: CHO-K1 cells (membrane preparation)
T2 sequence (P35372 whole entry): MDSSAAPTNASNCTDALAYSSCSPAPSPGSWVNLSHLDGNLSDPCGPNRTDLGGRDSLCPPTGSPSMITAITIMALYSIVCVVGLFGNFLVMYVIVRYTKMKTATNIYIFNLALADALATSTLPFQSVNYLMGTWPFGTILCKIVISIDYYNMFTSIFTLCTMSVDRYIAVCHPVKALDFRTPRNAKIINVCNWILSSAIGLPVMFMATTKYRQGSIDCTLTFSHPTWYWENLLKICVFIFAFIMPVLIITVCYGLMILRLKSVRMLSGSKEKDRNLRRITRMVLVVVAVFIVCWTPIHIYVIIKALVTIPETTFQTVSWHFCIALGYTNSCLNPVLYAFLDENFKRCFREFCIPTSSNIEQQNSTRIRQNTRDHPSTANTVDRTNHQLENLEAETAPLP
Kind of assay: Affinity for the human μ opiate receptor ([3H]-naloxone displacement, CHO-K1 receptor membrane preparation, SPA). The assay is classed as binding. Conditions: Table 2, test concentration 1 μM; for inhibition at 1 µM: 1.5 h, read-out: μ receptor. Summed up: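 Readout is percent displacement of [3H]-naloxone (1 nmol/l) from human μ receptor in CHO-K1 membranes, measured at 1 μmol/l compound. Incubation runs 90 minutes at room temperature with WGA-SPA beads in Tris-HCl/BSA buffer; non-specific binding is defined with 100 μmol/l naloxone.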

T1 sequence (P31652 whole entry): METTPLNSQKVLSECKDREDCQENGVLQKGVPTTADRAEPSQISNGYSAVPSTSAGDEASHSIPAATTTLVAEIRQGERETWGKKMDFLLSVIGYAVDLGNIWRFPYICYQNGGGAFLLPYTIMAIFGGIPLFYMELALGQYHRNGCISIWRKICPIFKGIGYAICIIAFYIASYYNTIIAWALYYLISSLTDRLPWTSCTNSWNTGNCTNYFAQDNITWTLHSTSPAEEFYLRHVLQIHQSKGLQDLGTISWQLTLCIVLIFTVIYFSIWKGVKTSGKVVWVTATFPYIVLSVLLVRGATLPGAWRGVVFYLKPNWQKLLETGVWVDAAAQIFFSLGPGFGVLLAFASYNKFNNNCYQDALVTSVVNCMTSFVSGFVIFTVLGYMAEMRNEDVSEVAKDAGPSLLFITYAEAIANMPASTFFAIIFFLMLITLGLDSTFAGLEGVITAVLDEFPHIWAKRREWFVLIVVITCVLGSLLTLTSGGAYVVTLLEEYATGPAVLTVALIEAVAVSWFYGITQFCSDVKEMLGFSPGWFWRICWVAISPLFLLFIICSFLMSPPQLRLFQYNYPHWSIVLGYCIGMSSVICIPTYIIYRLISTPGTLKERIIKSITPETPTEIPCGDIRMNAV

In the case of `CN(C)C(c1ccccc1)C1CCC(NC(=O)COC2CCN(S(=O)(=O)c3c(Cl)cc(Cl)cc3Cl)C2)CC1` (stereo not drawn) [Example 609, N-[4-(dimethylaminophenylmethyl)-cyclohexyl]-2-[1-(2,4,6-trichlorobenzenesulfonyl)-pyrrolidin-3-yloxy]-acetamide], in assay [1], the inhibition at 10 µM came out at 86%. Moreover, the inhibition at 1 µM on human μ opiate receptor amounted to 94%.

Compound `CN(C)C(c1ccccc1)C1CCC(NC(=O)COCC2CCCN2S(=O)(=O)c2c(Cl)cc(Cl)cc2Cl)CC1` (stereo not drawn) [Example 611, N-[4-(Dimethylaminophenylmethyl)-cyclohexyl]-2-[1-(2,4,6-trichlorobenzenesulfonyl)-pyrrolidin-2-ylmethoxy]-acetamide] displayed a 5-HT reuptake in assay [1] of 84 % inhibition. Also, at human μ opiate receptor, the inhibition at 1 µM came out at 93%.

`CN(C)C(c1ccccc1)C1CCC(NC(=O)COCC2CCCN2S(=O)(=O)c2c(Cl)cc(Cl)cc2Cl)CC1` (stereo not drawn) [Example 612, N-[4-(Dimethylaminophenylmethyl)-cyclohexyl]-2-[1-(2,4,6-trichlorobenzenesulfonyl)-pyrrolidin-2-ylmethoxy]-acetamide] yielded a 5-HT reuptake in assay [1] of 84 % inhibition. Moreover, at human μ opiate receptor, the μ receptor stood at 88 % inhibition.

`CN(C)C(c1ccccc1)C1CCC(NC(=O)COCC2CCCN2S(=O)(=O)c2c(Cl)cc(Cl)cc2Cl)CC1` (stereo not drawn) [Example 613, N-[4-(Dimethylaminophenylmethyl)-cyclohexyl]-2-[1-(2,4,6-trichlorobenzenesulfonyl)-pyrrolidin-2-ylmethoxy]-acetamide] gave a 5-HT reuptake in assay [1] of 62 % inhibition. At human μ opiate receptor, this compound had a μ receptor of 90 % inhibition.

In the case of `CN(C)C(c1ccccc1)C1CCC(CNC(=O)COCCN(C)S(=O)(=O)c2c(Cl)cc(Cl)cc2Cl)CC1` (stereo not drawn) [Example 614, N-[4-(dimethylaminophenylmethyl)-cyclohexylmethyl]-2-{2-[(2,4,6-trichlorobenzenesulfonyl)-methylamino]-ethoxy}-acetamide], the inhibition at 10 µM in assay [1] was determined as 90%. For the same compound, the inhibition at 1 µM on human μ opiate receptor is 96%.

Regarding `CN(C)C(c1ccccc1)C1CCC(NC(=O)COCCN(C)S(=O)(=O)c2c(Cl)cc(Cl)cc2Cl)C1` (stereo not drawn) [Example 615, N-[3-(dimethylaminophenylmethyl)-cyclopentyl]-2-{2-[(2,4,6-trichlorobenzenesulfonyl)-methylamino]-ethoxy}-acetamide], in assay [1], the inhibition at 10 µM turned out to be 81%. The inhibition at 1 µM at human μ opiate receptor was 89%.

Source of the values: patent US8106055B2, “Substituted amide compounds” (Gruenenthal GmbH, priority 2007, dated 2012).
